# Laboratory results: patent US9617310B2 (priority 2013, dated 2017)
# Test system: genotype 3a stable HCV replicon (S52) in Huh-7-derived cells
# Experiment: Stable subgenomic HCV replicon, genotype 3a, Renilla luciferase
# Format: cell-based
# Details: Hepatitis C virus, 72 h, read-out: EC50 3A RLUC
# Experimental: Antiviral potency (EC50) was determined in both stable subgenomic HCV replicon cell lines and transient-transfected HCV replicon cells. The term half maximal effective concentration (EC50) refers to the concentration of a drug which induces a response halfway between the baseline and maximum after the exposure time specified below.
# Stable subgenomic HCV replicons for genotype 1a, 1b, 2a, 3a, and 4a were established in Huh-7-derived cells as described by Lohmann et al (Lohmann V, Korner F, Koch J, et al Replication of subgenomic hepatitis C virus RNAs in a hepatoma cell line. Science 1999; 285:119-3). Each stable cell line contains a bicistronic HCV replicon that encodes a humanized Renilla luciferase (hRLuc) reporter gene fused to a selectable neomycin-resistance gene, followed by an EMCV IRES and the NS3-NS5B coding region of HCV. […] Luciferase activity was measured as a marker for intracellular HCV replication levels.
# The genotype 1a stable replicon was derived from the H77 HCV strain and contained adaptive mutations P1496L and S2204I. The genotype 1b stable replicon was derived from the Con1 HCV strain and contained adaptive mutations E1202G, T1280I, and K1846T. […] The genotype 3a stable replicon was derived from the S52 HCV strain and contained adaptive mutations P1121 L, A1198T and S2210I (equivalent to S2204I in genotype 1). The genotype 4a stable replicon was derived from the ED43 HCV strain and contained adaptive mutations Q1691R and S2204I. All replicon cell lines were propagated in Huh-7-derived cells and maintained in Dulbecco's modified Eagle's Medium (DMEM) supplemented with 10% fetal bovine serum (FBS) and 0.5 mg/ml G418.
# To perform EC50 assays, cells from each HCV replicon were dispensed into 384-well plates. Compounds were dissolved in DMSO at a concentration of 10 mM and diluted in DMSO using an automated pipetting instrument. Three-fold serially diluted compounds were directly added to the cells using an automated instrument. DMSO was used as a negative (solvent; no inhibition) control, and a combination of three HCV inhibitors including a protease inhibitor; an NS5A inhibitor and a nucleoside inhibitor was used at concentrations >100×EC50 as a positive control (100% inhibition). Seventy-two hours later, cells were lysed and Renilla luciferase activity were quantified as recommended by the manufacturer (Promega-Madison, Wis.). Non-linear regression was performed to calculate […], values.
row,SMILES,EC50
1,"COc1ccc2nc3c(nc2c1)O[C@@H]1C[C@@H](C(=O)N[C@]2(C(=O)NS(=O)(=O)C4CC4)C[C@H]2C(F)F)N(C1)C(=O)[C@H](C(C)(C)C)NC(=O)O[C@@H]1C[C@@H]2C[C@@H]2[C@H]1CCCCC3(F)F (racemic) [Example 9, (1aS,2aR,6S,9S,11R,23aR,23bS)-6-tert-butyl-N-[(1R,2R)-1-[(cyclopropylsulfonyl)carbamoyl]-2-(difluoromethyl)cyclopropyl]-19,19-difluoro-15-methoxy-4,7-dioxo-1a,2,2a,4,5,6,7,10,11,19,20,21,22,23,23a,23b-hexadecahydro-1H,9H-8,11-methanocyclopropa[4′,5′]cyclopenta[1′,2′:18,19][1,10,3,6]dioxadiazacyclononadecino[11,12-b]quinoxaline-9-carboxamide]",6.6 nM
2,"CC(C)(C)[C@@H]1NC(=O)O[C@@H]2C[C@@H]3C[C@@H]3[C@H]2CCCCC(F)(F)c2nc3cc(F)c(F)cc3nc2O[C@@H]2C[C@@H](C(=O)N[C@]3(C(=O)NS(=O)(=O)C4CC4)C[C@H]3C(F)F)N(C2)C1=O (racemic) [Example 15, (1aS,2aR,6S,9S,11R,23aR,23bS)-6-tert-butyl-N-[(1R,2R)-1-[(cyclopropylsulfonyl)carbamoyl]-2-(difluoromethyl)cyclopropyl]-15,16,19,19-tetrafluoro-4,7-dioxo-1a,2,2a,4,5,6,7,10,11,19,20,21,22,23,23a,23b-hexadecahydro-1H,9H-8,11-methanocyclopropa[4′,5′]cyclopenta[1′,2′:18,19][1,10,3,6]dioxadiazacyclononadecino[11,12-b]quinoxaline-9-carboxamide]",30 nM
3,"COc1ccc2nc3c(nc2c1)O[C@@H]1C[C@@H](C(=O)N[C@]2(C(=O)NS(=O)(=O)C4CC4)C[C@H]2C(F)F)N(C1)C(=O)[C@H](C(C)(C)C)NC(=O)O[C@@H]1C[C@@H]2C[C@@H]2[C@H]1CCCCC3 [Example 1, (1aS,2aR,6S,9S,11R,23aR,23bS)-6-tert-butyl-N-[(1R,2R)-1-[(cyclopropylsulfonyl)carbamoyl]-2-(difluoromethyl)cyclopropyl]-15-methoxy-4,7-dioxo-1a,2,2a,4,5,6,7,10,11,19,20,21,22,23,23a,23b-hexadecahydro-1H,9H-8,11-methanocyclopropa[4′,5′]cyclopenta[1′,2′:18,19][1,10,3,6]dioxadiazacyclononadecino[11,12-b]quinoxaline-9-carboxamide]",23 nM
4,"COc1ccc2nc3c(nc2c1)O[C@@H]1C[C@@H](C(=O)N[C@]2(C(=O)NS(=O)(=O)C4(C)CC4)C[C@H]2C(F)F)N(C1)C(=O)[C@H](C(C)(C)C)NC(=O)O[C@@H]1C[C@@H]2C[C@@H]2[C@H]1CCCCC3 [Example 2, (1aS,2aR,6S,9S,11R,23aR,23bS)-6-tert-butyl-N-[(1R,2R)-2-(difluoromethyl)-1-{[(1-methylcyclopropyl)sulfonyl]carbamoyl}cyclopropyl]-15-methoxy-4,7-dioxo-1a,2,2a,4,5,6,7,10,11,19,20,21,22,23,23a,23b-hexadecahydro-1H,9H-8,11-methanocyclopropa[4′,5′]cyclopenta[1′,2′18,19][1,10,3,6]dioxadiazacyclononadecino[11,12-b]quinoxaline-9-carboxamide]",17 nM
5,"COc1ccc2nc3c(nc2c1)O[C@@H]1C[C@@H](C(=O)N[C@]2(C(=O)NS(=O)(=O)C4CC4)C[C@H]2CC(F)F)N(C1)C(=O)[C@H](C(C)(C)C)NC(=O)O[C@@H]1C[C@@H]2C[C@@H]2[C@H]1CCCCC3 [Example 3, (1aS,2aR,6S,9S,11R,23aR,23bS)-6-tert-butyl-N-[(1R,2S)-1-[(cyclopropylsulfonyl)carbamoyl]-2-(2,2-difluoroethyl)cyclopropyl]-15-methoxy-4,7-dioxo-1a,2,2a,4,5,6,7,10,11,19,20,21,22,23,23a,23b-hexadecahydro-1H,9H-8,11-methanocyclopropa[4′,5′]cyclopenta[1′,2′:18,19][1,10,3,6]dioxadiazacyclononadecino[11,12-b]quinoxaline-9-carboxamide]",194 nM
6,"COc1ccc2nc3c(nc2c1)O[C@@H]1C[C@@H](C(=O)N[C@]2(C(=O)NS(=O)(=O)C4CC4)C[C@H]2C(F)F)N(C1)C(=O)[C@H](C(C)(C)C)NC(=O)O[C@@H]1[C@H]2CC[C@H](C2)[C@H]1CCCCC3 [Example 4, (1R,4S,4aR,8S,11S,13R,25aR)-8-tert-butyl-N-[(1R,2R)-1-[(cyclopropylsulfonyl)carbamoyl]-2-(difluoromethyl)cyclopropyl]-17-methoxy-6,9-dioxo-2,3,4,4a,6,7,8,9,12,13,21,22,23,24,25,25a-hexadecahydro-1H,11H-1, 4:10,13-dimethanoquinoxalino[2,3-k][1,10,3,6]benzodioxadiazacyclononadecine-11-carboxamide]",429 nM
7,"COc1ccc2nc3c(nc2c1)O[C@@H]1C[C@@H](C(=O)N[C@]2(C(=O)NS(=O)(=O)C4(C)CC4)C[C@H]2C(F)F)N(C1)C(=O)[C@H](C(C)(C)C)NC(=O)O[C@@H]1[C@H]2CC[C@H](C2)[C@H]1CCCCC3 [Example 5, (1R,4S,4aR,8S,11S,13R,25aR)-8-tert-butyl-N-[(1R,2R)-2-(difluoromethyl)-1-{[(1-methylcyclopropyl)sulfonyl]carbamoyl}cyclopropyl]-17-methoxy-6,9-dioxo-2,3,4,4a,6,7,8,9,12,13,21,22,23,24,25,25a-hexadecahydro-1H,11H-1, 4:10,13-dimethanoquinoxalino[2,3-k][1,10,3,6]benzodioxadiazacyclononadecine-11-carboxamide]",473 nM
8,"COc1ccc2nc3c(nc2c1)O[C@@H]1C[C@@H](C(=O)N[C@]2(C(=O)NS(=O)(=O)C4CC4)C[C@H]2C(F)F)N(C1)C(=O)[C@H](C(C)(C)C)NC(=O)O[C@H]1[C@H](CCCCC3)C[C@H]2C[C@H]21 [Example 7, (1aR,1bS,5S,8S,10R,22aR,23aR)-5-tert-butyl-N-[(1R,2R)-1-[(cyclopropylsulfonyl)carbamoyl]-2-(difluoromethyl)cyclopropyl]-14-methoxy-3,6-dioxo-1a,1b,3,4,5,6,9,10,18,19,20,21,22,22a,23,23a-hexadecahydro-1H,8H-7,10-methanocyclopropa[3′,40]cyclopenta[1′,2′:18,19][1,10,3,6]dioxadiazacyclononadecino[11,12-b]quinoxaline-8-carboxamide]",3300 nM
9,"COc1ccc2nc3c(nc2c1)O[C@@H]1C[C@@H](C(=O)N[C@]2(C(=O)NS(=O)(=O)C4(C)CC4)C[C@H]2C(F)F)N(C1)C(=O)[C@H](C(C)(C)C)NC(=O)O[C@H]1[C@H](CCCCC3)C[C@H]2C[C@H]21 [Example 8, (1aR,1bS,5S,8S,10R,22aR,23aR)-5-tert-butyl-N-[(1R,2R)-2-(difluoromethyl)-1-{[(1-methylcyclopropyl)sulfonyl]carbamoyl}cyclopropyl]-14-methoxy-3,6-dioxo-1a,1b,3,4,5,6,9,10,18,19,20,21,22,22a, 23,23a-hexadecahydro-1H,8H-7,10-methanocyclopropa[3′,4′]cyclopenta [1′,2′:18,19][1,10,3,6]dioxadiazacyclononadecino[11,12-b]quinoxaline-8-carboxamide]",2450 nM
10,"COc1ccc2nc3c(nc2c1)O[C@@H]1C[C@@H](C(=O)N[C@]2(C(=O)NS(=O)(=O)C4(C)CC4)C[C@H]2C(F)F)N(C1)C(=O)[C@H](C(C)(C)C)NC(=O)O[C@@H]1C[C@@H]2C[C@@H]2[C@H]1CCCCC3(F)F [Example 10, (1aS,2aR,6S,9S,11R,23aR,23bS)-6-tert-butyl-N-[(1R,2R)-2-(difluoromethyl)-1-{[(1-methylcyclopropyl)sulfonyl]carbamoyl}cyclopropyl]-19,19-difluoro-15-methoxy-4,7-dioxo-1a,2,2a,4,5,6,7,10,11,19,20,21,22,23,23a,23b-hexadecahydro-1H,9H-8,11-methanocyclopropa [4′,5′]cyclopenta[1′,2′:18,19][1,10,3,6]dioxadiazacyclononadecino[11,12-b]quinoxaline-9-carboxamide]",4.9 nM
11,"CC(C)(C)[C@@H]1NC(=O)O[C@@H]2C[C@@H]3C[C@@H]3[C@H]2CCCCCc2nc3ccc(F)cc3nc2O[C@@H]2C[C@@H](C(=O)N[C@]3(C(=O)NS(=O)(=O)C4(C)CC4)C[C@H]3C(F)F)N(C2)C1=O [Example 11, (1aS,2aR,6S,9S,11R,23aR,23bS)-6-tert-butyl-N-[(1R,2R)-2-(difluoromethyl)-1-{[(1-methylcyclopropyl)sulfonyl]carbamoyl}cyclopropyl]-15-fluoro-4,7-dioxo-1a,2,2a,4,5,6,7,10,11,19,20,21,22,23,23a,23b-hexadecahydro-1H,9H-8,11-methanocyclopropa[4′,5′]cyclopenta[1′,2′:18,19][1,10,3,6]dioxadiazacyclononadecino[11,12-b]quinoxaline-9-carboxamide]",61 nM
